Test results published in patent EP0039809A2, “2-Amino-5-halogen-benzothiazoles, process for preparing them and medicines containing them” (Dr. Karl Thomae GmbH, priority 1980, dated 1981).
Like-named read-outs stand apart in the source and are kept apart here.

Assays:
[1] = test system: Körpertemperatur der Ratte; experiment: Effect on body temperature of the rat (rectal temperature lowering); format: in vivo; details: oral (gavage), Chbb:THOM rats, dose lowering body temperature by 1,5°C, read-out: Körpertemperatursenkg. Ratte [ED-1,5°C]
Procedure: 3. Wirkung auf die Körpertemperatur der Ratte
Die Prüfung der temperatursenkenden Wirkung erfolgte durch; die Kontrolle des Verlaufes der rektal gemessenen Körper- temperatur von Chbb:THOM-Ratten mit einem Gewicht zwischen 125-150 g über im Rektum verweilende Thermoelemente. Die Prüfsubstanz wurde als Verreibung in 1 %iger Methylzellulose (1,0 ml/100 g Tier) per Schlundsonde beigebracht. Aus den nach Gabe der verschiedenen Dosen der Prüfsubstanz gewonnenen Werten für die mittlere maximale Temperatursenkung wurde nach linearer Regressionsanalyse nach LINDER (s.o.) eine ED-1,5°C als jene Dosis berechnet, die eine Senkung der Körpertemperatur um 1,5°C bewirkte.

[2] = test system: Entzündungsschmerz der Ratte; experiment: Analgesic effect against inflammatory pain in the rat (RANDALL-SELITTO, yeast-inflamed paw, pain threshold); format: in vivo; details: oral (gavage), male Chbb:THOM rats, dose raising the pain threshold by 50 % versus controls
Procedure: 1) Wirkung gegen den Entzündungsschmerz der Ratte
Die Versuchsanordnung entsprach der von RANDALL-SELITTO (Arch. int. Pharmacodyn. 111, 409 (1957) angegebenen.
Männliche Chbb:THOM-Ratten mit einem Gewicht zwischen 100 und 130 g erhielten eine subplantare Injektion von 0,1 ml einer 5%igen Suspension von Hefezellen in 5,55 %iger Glukoselösun^g in eine Hinterpfote. […] 2 1/4 Stunden nach der Injektion des Phlogisticums erhielten die Tiere verschiedene Dosen der Prüfsubstanz als Verreibung in 1 %iger Methylzellulose (1 ml/100 g Tier) per Schlundsonde beigebracht. Kontrolltiere erhielten entsprechende Volumina des Vehikels. ― 90 bzw. 45 min nach Applikation der Prüfsubstanz (d.h. 3 Stunden nach der subplantaren Injektion der Hefesuspension) wurde bei den Ratten die Schmerzschwelle in g Auflagedruck/Pfote bestimmt.
Aus der nach den verschiedenen Dosen der Prüfsubstanz ge- i messenen Schmerzschwelle wurde nach linearer Regressionsanalyse nach LINDER (Statistische Methoden, 4. Aufl. pp. 148-162, Birkhäuser, Basel 1964) eine ED50 mit den Vertrauensgrenzen nach FIELLER (Quart. J. Pharm. Pharmacol. 17, 117 (1944) als jene Dosis ermittelt, die eine Anhebung der Schmerzschwelle um 50 % gegenüber der der Kontrollen bewirkte.

[3] = test system: Wärmeschmerz der Maus; experiment: Analgesic effect against heat pain in the mouse (hot plate, modified CHEN and BECKMAN); format: in vivo; details: oral (gavage), male Chbb:NMRI(SPF) mice, plate 52°C, dose giving 100 % prolongation of reaction time, read-out: Analgesie Maus "hot plate" [ED100]
Procedure: 2) Wirkung gegen den Wärmeschmerz der Maus
Die Prüfung erfolgte mit Hilfe einer Modifikation der Ver- suchsanordnung nach CHEN u. BECKMAN (Science 113, 631 (1951) an männlichen Chbb:NMRI(SPF)-Mäusen mit einem mittleren Gewicht von 20 g. Die "heiße Platte" bestand aus Aluminium und hatte eine Oberflächentemperatur von 52°C. ;
Die Prüfsubstanz wurde als Verreibung in 1 %iger-Methylzellulose (0,1 ml/10 g maus) per Schlundsonde beigebracht. Vor der Behandlung mit Prüfsubstanz wurden die Tiere im Abstand von 30 min. zweimal auf die heiße Platte gesetzt. Es wurde ihre individuelle Reaktionszeit ermittelt. Nach Gabe der Prüfsubstanz wurde in Abständen von 30 min. die Reaktionszeit erneut gemessen.
Aus der mit den verschiedenen Dosen der Prüfsubstanz erzielten gemittelten maximalen Verlängerung der Reaktionszeit wurde nach linearer Regressionsanalyse nach LINDER (s.o.) eine ED100 mit den Vertrauensgrenzen nach FIELLER (s.o.) als die Dosis berechnet, die zu einer 100 %igen Verlängerung der Reaktionszeit führte.

[4] = Acute toxicity in the mouse; details: in vivo, oral (gavage), Chbb:NMRI(SPF) mice of both sexes, deaths within 14 days, read-out: Akute Toxizität Maus [LD50]
Procedure: 4. Akute Toxizität an der Maus
Die Bestimmung der akuten Toxizität erfolgte an Chbb:NMRI (SPF)-Mäusen beider Geschlechter mit einem mittleren Gewicht von 20 g. Die Prüfsubstanz wurde als Verreibung in 1 %iger Methylzellulose (0,5 ml/10 g Tier) per Schlundsonde verabfolgt. Die Berechnung der LD50 erfolgte (soweit möglich) nach LITCHFIELD u. WILCOXON (J. Pharmacol. exp. Therap. 96, 99 (1949)) aus dem Prozentsatz der Tiere, die nach den verschiedenen Dosen innerhalb von 14 Tagen verstarben.

`COc1cc2sc(N)nc2cc1Cl` [2-Amino-5-chlor-6-methoxy-benzothiazol] gave an ED (-1.5 degC) [1] of 101 mg/kg, an ED50 ([2]; 0.75 h, 45 min after application, read-out: Analgesie Ratte nach RANDALL-SELITTO 45 min nach Appl. [ED50]) of 79 mg/kg and an ED50 ([2]; 1.5 h, 90 min after application, read-out: Analgesie Ratte nach RANDALL-SELITTO 90 min nach Appl. [ED50]) of 80 mg/kg. The ED100 [3] was 144 mg/kg and the LD50 at 336 h [4] was 3050 mg/kg.
